In assay [1] the test system is PACA-2. Briefly: MTT cell survival rate, PACA-2. Format: cell-based. The note with it: Homo sapiens, PACA-2, 24 hours, read-out: IC50 (concentration of 50% inhibition). Here is the method:
(§1) MTT (3-[4,5-dimethylthiahiazo-2-yl]-2,4-dipheny-tetrazolium bromide) was used to determine if the cell survival rate of different pancreatic cancer cell lines will be influenced when being treated with (Z)-butylidenephthalide. Human pancreatic cancer cell lines (3×10^3 cells/well), PANC-1 and PACA-2, were cultured in a 96-well micro-culture plate over night. Different concentrations of (Z)-butylidenephthalide (0 μg/ml, 10 μg/ml, 25 μg/ml, 50 μg/ml, 75 μg/ml, or 100 μg/ml) or (E)-butylidenephthalide (0 μg/ml, 50 μg/ml, 100 μg/ml, 200 μg/ml, 400 μg/ml, or 800 μg/ml), or 50 μM gemcitabine (a traditional medicine for treating pancreatic cancer, as a control group) were added into each well of the 96-well micro-culture plate along the inner wall, and cultured for 24 hours. The medium was removed, and then a medium containing 500 μg/ml MTT (200 μl) was added and cultured for 4 hours. The medium was removed, and then 200 μl of DMSO was added into the plate. The absorbance of the sample in each well was measured by a spectrophotometer at 570 nm wavelength. The data was calculated to determine the survival rate and IC50 (concentration of 50% inhibition) of each pancreatic cancer cell line treated with (Z)-butylidenephthalide and (E)-butylidenephthalide. The results are shown in FIG. 1A ((E)-butylidenephthalide) and FIG. 1B ((Z)-butylidenephthalide).

The test system of the next assay is PANC-1. Briefly: MTT cell survival rate, PANC-1. To be noted: Homo sapiens, PANC-1, 24 hours, read-out: IC50 (concentration of 50% inhibition). Format: cell-based. Here is the method:
as §1

Assay [2] concerns gene expression levels of NOR-1, Nurr1, and Nur77 in PACA-2. Kind of assay: RT-PCR of apoptosis-related gene expression, PACA-2. Format: cell-based, Human. On the procedure: (§2) In this experiment, pancreatic cancer cell lines, PANC-1 and PACA-2, were treated with 100 μg/ml Z-BP for 0, 1, 3, 6, or 24 hours, and then, analyzed by reverse transcriptase-polymerase chain reaction (RT-PCR) (FIG. 6A) to analyze the effects of Z-BP on the gene expression levels of NOR-1, Nurr1, and Nur77 in the pancreatic cancer cell line. In addition, pancreatic cancer cell lines, PANC-1 and PACA-2, were treated with different concentrations of Z-BP for 3 hours, and then, analyzed by RT-PCR (FIG. 6B). The Glyceraldehyde 3-phosphate dehydrogenase (GAPDH) was used as the control group.

Assay [3] relates to gene expression levels of NOR-1, Nurr1, and Nur77 in PANC-1. Kind of assay: RT-PCR of apoptosis-related gene expression, PANC-1. Format: cell-based, Human. Here is the method: as §2
The test system of a further assay is Nurr1 RNA in PACA-2. Briefly: Micro RNA interference test, RT-PCR of Nurr1 RNA in PACA-2. Format: cell-based, human. The note with it: PACA-2, 133 μM Z-BP. Here is the method: The RNA expression of Nurr1 in the human pancreatic cancer cell line, PACA-2, was inhibited by Micro RNA interference technology. The cells were treated with 133 μM Z-BP. Then, the cells were analyzed by RT-PCR to detect the changes in the expression of Nurr1 RNA in the cells. As the results shown in FIG. 7A, when PACA-2 cells were treated with 50 nM Nurr1 micro RNA, about 50% of the Nurr1 induced by Z-BP was inhibited.

Assay [4] deals with Nur77 gene pathway-related and apoptosis-related proteins in PACA-2. Kind of assay: Western blotting of Nur77 pathway-related and apoptosis-related proteins in PACA-2. Format: cell-based, Human. Here is the method:
Human pancreatic cancer cell line, PACA-2, […], and then the expression levels of the Nur77 gene involved pathway-related proteins were analyzed by Western blotting, including Pan-PKC, AKT, ERK, and JNK (FIG. 8A). In addition, the expression levels of apoptosis-related proteins were also analyzed, including poly(ADP-ribose) polymerase (PARP), cleaved poly(ADP-ribose) polymerase (cPARP), caspase-3 (FIG. 8B). β-actin was used as the control group.
(Immunoblotting shows a protein as a band on a membrane.)

The test system of assay [5] is PACA-2. Briefly: Micro RNA interference test, cellular survival rate of PACA-2. Format: cell-based, human. To be noted: PACA-2, 133 μM Z-BP. On the procedure:
Human pancreatic cancer cell lines, PACA-2, was cultured with p(CPP-SA)-Z-BP comprising 0 w % (as a control group), 17.5 w %, or 25 w % (Z)-butylidenephthalide, respectively, for 24 hours, and then the tumor cell morphology and cellular survival rate were observed.
In addition, the human pancreatic cancer cell line, PACA-2, was treated with 10 nM or 50 nM of Nurr1 micro RNA, and then treated with 133 μM Z-BP. Then, the cellular survival rate was observed using the same method as described in Example 4.

Setting [6] is: PACA-2, 100 μg/ml Z-BP, 1 to 3 hours.
Setting [7] is: PANC-1, 100 μg/ml Z-BP, 1 to 3 hours.
[8] abbreviates: PACA-2, Z-BP for 24 hours or 48 hours.

Where “and” joins values, the source holds several entries; their conditions need not be identical. Equal values may be shown once.

Regarding `CCC/C=C1/OC(=O)c2ccccc21` [(E)-butylidenephthalide, reference compound], the IC50 is ~162 µg/mL and ~864 µM with PACA-2 [1]; ~257 µg/mL and ~1.37 mM in the assay on PANC-1.

Take `CCC/C=C1\OC(=O)c2ccccc21` [(Z)-butylidenephthalide]: in the assay on PACA-2 [1], the IC50 was ~25 µg/mL and ~133 µM. Besides, in assay [2] (setting [6]), the “mRNA expression level of NOR-1” value is recorded as “increased” and the “mRNA expression level of Nurr1” value was “increased”. Further, the “mRNA expression level of Nurr1” value in assay [2] (PACA-2, different concentrations of Z-BP, 3 hours) is given as “increased”. For the same compound, in assay [3] (setting [7]), the “mRNA expression level of NOR-1” value is reported as “increased” and the “mRNA expression level of Nurr1” value is given as “increased”. Besides, the “mRNA expression level of Nurr1” value in assay [3] (PANC-1, different concentrations of Z-BP, 3 hours) is listed as “increased”. Besides, the “expression of Nurr1” value with Nurr1 RNA in PACA-2 was “increase the expression of Nurr1”. Further, the IC50 in the assay on PANC-1 was ~45 µg/mL and ~234 µM. Further, in assay [4] (PACA-2, Z-BP for 180 minutes), the “expression level of phospho-AKT (Pi-AKT)” value is given as “increased” and the “expression level of phospho-JNK (Pi-SAPK/JNK)” value was “increased”. Moreover, in assay [4] (setting [8]), the “expression level of PARP” value was “increased”, the “expression level of cPARP” value is recorded as “increased” and the “expression level of caspase-3” value is “increased”. Also, the “cellular survival rate of PACA-2 cells” value with PACA-2 [5] is listed as “reduce the cellular survival rate”.

For the origin of these results see patent US9872912B2, “Method for treating pancreatic cancer” (CHINA MEDICAL UNIVERSITY, priority 2014, dated 2018).
